Experiment [1] is described as follows: 5(6)-Carboxyfluorescein leakage from lipid vesicles. Conditions: 10 mM TRIS, 107 mM NaCl, pH 7.4; peptide added at 50 s. The method, then:
(§1) Preparation A thin lipid film was prepared by evaporating a solution of 25 mg Egg PC or Egg PG in 1 mL MeOH/CHCl3 1/1 on a rotary evaporator (rt) and then in vacuo overnight. The resulting film was hydrated with 1 mL buffer (50 mM CF, 10 mM TIRS, 10 mM NaCl, pH 7.4) for 30 min, subjected to freeze-thaw cycles (7×) and extrusion (15×) through a polycarbonate membrane (pore size 100 nm). Extravesicular components were removed by gel filtration (Sephadex G-50) with 10 mM TRIS, 107 mM NaCl, pH 7.4. Final conditions: ˜2.5 mM Egg PC or Egg PG; inside: 50 mM CF, 10 mM TIRS, 10 mM NaCl, pH 7.4; outside: 10 mM TRIS, 107 mM NaCl, pH 7.4.
(§2) Experiment Egg PC or Egg PG stock solutions (37.5 μL) were diluted with a buffer (10 mM TRIS, 107 mM NaCl, pH 7.4) and placed in a thermostated fluorescence cuvette (25° C.) and gently stirred (total volume in the cuvette ˜3000 μL; final lipid concentration ˜31.25 μM). CF efflux was monitored at λem 517 nm (λex 492 nm) as a function of time after addition of 20 μL of peptide dendrimer in buffer (10 mM TRIS, 107 mM NaCl, pH 7.4) with final concentrations of 1, 5, 7.5, 10, 15, 20, 25, 30 μg/mL at t=50 s and 1.2% trition X-100 (30 μL, 0.012% final concentration) at t=300 s. Fluorescence intensities were normalized to fractional emission intensity I(t) using I(t)=(It−I0)/(I∞−I0) where I0 It at peptide dendrimer addition, I∞=It at saturation of lysis.

Test in experiment [2]: as above
As to conditions: 10 mM TRIS, 107 mM NaCl, pH 7.4; peptide added at 50 s. Here is the method: as §1, §2
Bacterial membranes contain relatively large amounts of exposed anionic lipids, while the outer leaflet of the membranes of plants and animals is composed mainly of lipids with no net charge. The charge composition of such membranes can be mimicked with phospholipid vesicles. Large unilamellar vesicles (LUVs) composed of the neutral phospholipid with PC (phosphatidyl choline) or with PG (phosphatidyl glycerol) with negative charges were prepared encapsulating 5(6)-carboxyfluorescein (CF). […] The higher the concentration of MSt-112 the higher is the CF leakage (FIG. 6A). […] Overall the active AMPDs interact with the negatively charged membrane and release the CF.
This is another data set of the same source.

Experiment [3] relates to Pseudomonas aeruginosa (strain PA01). Type of experiment: cell-based. Conditions: 25 μg/mL; 0, 1, 3, 6, 8, 24 h. The method, then: Cell viability was assayed against Pseudomonas aeruginosa (strain PA01). A colony of bacteria was grown in LB-medium overnight at 37° C. The concentration was quantified by measuring absorbance at 600 nm and diluted to OD600=0.1 (1×10^8 CFU/mL). The samples were prepared as stock solutions of 1 mg mL^−1 in H2O and diluted in LB to a concentration of 50 μg/mL in a 96-well microtiterplate (TPP, untreated). The sample solutions (50 μL) were mixed with the diluted bacterial suspension with an OD600 nm of 0.001 (50 μL). […] The plates were incubated at 37° C. for 1, 3, 6, 8 and 24 h. Each time point was assayed on a separate plate. For each test, two columns of the plate were kept for sterility control (SC, broth only) and growth control (GC, broth with bacterial inoculums, no antibiotics). After incubation 15 μL of WST-8 working solution (3.31 mg/mL WST-8 (Ochem Incorporation), 0.074 mg/mL PES (phenazine ethosulfate)) was added to each well and cells were incubated at 37° C. until GC had desired value. After the reaction took place, the final absorbance was read at 450 nm. For calculations, the value of the GC was set to 100% cell viability and the value of the negative control (no bacteria, SC) was set to 0% cell viability. […]
In order to determine the killing kinetics of AMPDs the amount of living bacteria was measured as a function of time after incubation with the AMPDs. […]

Polymyxin B [reference compound]: the “CF leakage from phosphatidylcholine LUVs” value in experiment [1] is recorded as “behave in the same way”. Besides, in experiment [2], the “CF leakage from phosphatidylglycerol LUVs” value is reported as “immediate leakage of CF”. Besides, the “killing kinetics (bacterial survival over 24 hours)” value in experiment [3] was “kill P. aeruginosa immediately”.

The values are drawn from patent publication US10336792B2, “Antimicrobial peptide dendrimers” (priority 2014, dated 2019).
